Laboratory results reported in publication PMC5471521, “Novel selective β1-adrenoceptor antagonists for concomitant cardiovascular and respiratory disease” (The FASEB Journal, 2017).
Read-outs that look alike come from different tables or passages of the source.

What was measured:
[1] = system: panel of 80 receptors and ion channels; assay: Cerep in vitro receptor selectivity profiling; type: binding; conditions: CGP20712A and LK204-545 at 10 μM, NDD-713 at 4.8 μM, NDD-825 at 2.4 μM
Procedure: Ki (inhibition constant) was calculated by using the Cheng-Prusoff equation from the mean of duplicate determinations in cell-based receptor radioligand-binding assays. Cerep in vitro pharmacology profiling service was used (see the Supplemental Data for a list of the assays used).

CYP2D6 = CYP2D6 (Homo sapiens, UniProt P10635); assay: P450 inhibition in human liver microsomes; type: in vitro ADME; design: in human liver microsomes (batch 34689 for CYP1A2 and CYP3A4; batch 0910251 for CYP2C9, CYP2C19, and CYP2D6); tissue batch 0910251; host or cells: human liver microsomes; conditions: 0.25–20 μM, hydrochloride salts used
CYP2D6, sequence (P10635 whole entry, canonical isoform): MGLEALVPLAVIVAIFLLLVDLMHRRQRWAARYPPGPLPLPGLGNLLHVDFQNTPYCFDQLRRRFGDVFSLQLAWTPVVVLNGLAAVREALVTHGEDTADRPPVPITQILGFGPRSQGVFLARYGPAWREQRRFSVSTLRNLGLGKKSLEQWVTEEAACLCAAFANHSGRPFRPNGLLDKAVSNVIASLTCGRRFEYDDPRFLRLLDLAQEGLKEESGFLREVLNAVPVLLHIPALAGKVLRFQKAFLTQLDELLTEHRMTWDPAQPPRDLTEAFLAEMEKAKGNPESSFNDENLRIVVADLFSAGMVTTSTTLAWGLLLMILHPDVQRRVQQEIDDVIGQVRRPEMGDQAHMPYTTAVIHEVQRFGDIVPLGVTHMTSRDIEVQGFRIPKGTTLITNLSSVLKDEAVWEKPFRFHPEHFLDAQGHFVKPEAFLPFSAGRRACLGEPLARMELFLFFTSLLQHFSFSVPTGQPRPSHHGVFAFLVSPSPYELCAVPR
Procedure: Concentrations of NDD-713.HCl and -825.HCl (0.25–20 μM) were incubated in triplicate (37°C for 4–40 min) with substrates specific for individual P450 isoforms (see Supplemental Data for full details) in human liver microsomes (batch 34689 for CYP1A2 and CYP3A4; batch 0910251 for CYP2C9, CYP2C19, and CYP2D6) at protein concentrations of 0.4 mg/ml (CYP1A2, CYP2C9, CYP2D6 and CYP3A4/5) or 1.0 mg/ml (CYP2C19) and a total organic solvent concentration <1%. Reaction was initiated by addition of NADPH-regenerating system and samples were quenched by addition of ice-cold acetonitrile, which contained 0.15 μg/ml diazepam as an internal standard, before determination of the concentration of specific metabolites by LC-MS. Compound IC50 values (and positive control) for each P450 isoform was assessed according to %reduction in formation of the specific metabolite (maximal metabolite formation occurring in the absence of inhibitor). […] Control samples were included to confirm that the LC-MS assay was not affected by test compounds (and potential metabolites). Studies were carried out by CDCO.

[2] = PK analysis in male Sprague-Dawley rats; type: in vivo; conditions: rat; for AUC(0-t) / half-life / clearance / Vd / Cmax / Tmax / bioavailability: male, Sprague-Dawley; for AUC(0-t) / half-life / clearance / Vd / Cmax / Tmax / AUC0-t/dose: hydrochloride salt forms; for half-life: read-out: t1/2, app (converted); for Vd: read-out: Vss; for Unbound plasma level at Cmax below β2-AR Kd / Likely duration of β1-AR blockade: 20 mg/kg p.o.; for Likely duration of β1-AR blockade: judged from PK profile vs Kd
Procedure: Blood samples were centrifuged, supernatant plasma was removed, and plasma concentrations of compounds were determined by LC-MS. […] Studies were carried out by CDCO.

human β1-AR = target: T1, human β1-AR (Homo sapiens, UniProt P08588); assay: CRE-SPAP reporter gene assay in CHO-β1 cells; type: cell-based; conditions: agonist mode, n = 5
T1 construct: expressed in transfected cells
T1 sequence (P08588 whole entry): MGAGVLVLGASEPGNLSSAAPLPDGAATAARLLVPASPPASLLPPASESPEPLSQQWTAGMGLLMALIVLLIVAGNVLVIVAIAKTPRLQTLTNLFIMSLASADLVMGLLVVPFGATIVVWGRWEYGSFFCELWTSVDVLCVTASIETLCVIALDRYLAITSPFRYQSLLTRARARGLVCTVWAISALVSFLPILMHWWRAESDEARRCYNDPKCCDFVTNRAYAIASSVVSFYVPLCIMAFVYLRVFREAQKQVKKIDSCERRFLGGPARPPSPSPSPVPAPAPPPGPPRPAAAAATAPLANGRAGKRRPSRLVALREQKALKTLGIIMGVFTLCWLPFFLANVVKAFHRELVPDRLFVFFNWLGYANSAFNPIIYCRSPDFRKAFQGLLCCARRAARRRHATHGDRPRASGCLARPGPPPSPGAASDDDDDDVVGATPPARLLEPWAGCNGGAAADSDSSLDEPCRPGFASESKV
Procedure: cAMP response element (CRE)–secreted placental alkaline phosphatase (SPAP) production was measured in confluent cells (96-well plates, 5 h incubation at 37°C) as described in Baker ([46]). This assay is a sensitive measure of both cAMP and ERK1/2 MAPK pathways ([47]).

[3] = Bidirectional CaCo-2 permeability; type: in vitro ADME; conditions: human, hydrochloride salts used; for efflux ratio at 90 min, 20 µM: Caco-2, pH 7.4, read-out: Efflux ratio Papp, B-A/Papp, A-B; for Papp A→B at 90 min, 20 µM: Caco-2, pH 7.4, 90 min, mean ± SD
Procedure: (§1) CaCo-2 cells were grown in Transwell permeable supports, and confluency was assessed by transepithelial electrical resistance measurements (>270 Ω/cm^2) and by unidirectional permeability (apical-basolateral) of the low- and high-permeability reference compounds, ^14C-mannitol and ^3H-propranolol. NDD-713.HCl and -825.HCl (20 µM in HBSS that contained 20 mM HEPES, pH 7.4) were transferred to the donor compartment of Transwell plates and the acceptor compartments were filled with blank HBSS. Permeability was determined over 90 min by sampling both compartments. Quantitation of compound concentrations in donor and acceptor samples was by liquid chromatography–mass spectrometry (LC-MS; lower limit of quantification, 0.5–1.5 ng/ml), and for ^14C-mannitol and ^3H-propranolol, by liquid scintillation counting. Apparent permeability coefficients (Papp) were calculated as follows: Papp (cm/s) = dQ/dT × 1/(C0 × A), where dQ/dt = apparent steady-state transport rate (μmol/s); C0 = initial concentration in the chamber (μmol/cm^3); and A = surface area of CaCo-2 monolayer (0.3cm^2). Efflux ratios were calculated as the ratio of mean Papp values in B→A and A→B directions. Studies were carried out by CDCO.

CaCo-2 cells = assay: Bidirectional CaCo-2 permeability; type: in vitro ADME; conditions: for Apical-to-basolateral membrane permeability (class in words): bidirectional CaCo-2 assay; for Mass balance A-B: hydrochloride salts used
Procedure: as §1

[4] = plasma, iv, i.v. 2 mg/kg, mean ± SD n = 3
[5] = plasma, iv, i.v. 2 mg/kg, read-out: Plasma CLtotal
[6] = plasma, iv, i.v. 6 mg/kg, mean ± SD n = 3
[7] = plasma, iv, i.v. 6 mg/kg, read-out: Plasma CLtotal
[8] = plasma, iv, i.v. 20 mg/kg, mean ± SD n = 3
[9] = plasma, iv, i.v. 20 mg/kg, read-out: Plasma CLtotal
[10] = whole blood, iv, i.v. 2 mg/kg, read-out: Blood CLtotal
[11] = whole blood, iv, i.v. 6 mg/kg, read-out: Blood CLtotal
[12] = whole blood, iv, i.v. 20 mg/kg, read-out: Blood CLtotal

## NC(=O)c1ccc(OCCNC[C@H](O)COc2ccc3c(c2)OC[C@@H](COCC2CC2)O3)cc1 [NDD-713]
[1]
  Off-target binding in receptor and ion channel panel: poor affinity for most other GPCRs and ion channels
CYP2D6
  IC50: > 20 µM
[2]; plasma, iv, i.v. 2 mg/kg
  AUC(0-t): 1.2 ± 0.1 µM·h
  Vd: 4.3 ± 0.4 L/kg
[2]; [4]
  half-life: 1.7 ± 0.2 h
[2]; [5]
  clearance: 62 ± 4 mL/min/kg
[2]; plasma, iv, i.v. 6 mg/kg
  AUC(0-t): 4.6 ± 0.3 µM·h
  Vd: 3.6 ± 0.2 L/kg
[2]; [6]
  half-life: 1.6 ± 0.1 h
[2]; [7]
  clearance: 43 ± 1 mL/min/kg
[2]; plasma, iv, i.v. 20 mg/kg
  AUC(0-t): 14.7 ± 1 µM·h
  Vd: 4.2 ± 0.2 L/kg
[2]; [8]
  half-life: 2 h
[2]; [9]
  clearance: 51 ± 2 mL/min/kg
[2]; plasma, po, p.o. 2 mg/kg
  AUC(0-t): 0.6 ± 0.2 µM·h
  Cmax: 200 ± 100 nM
  Tmax: 0.5 h
[2]; plasma, po, p.o. 10 mg/kg
  AUC(0-t): 5.1 ± 0.2 µM·h
  Cmax: 2100 ± 600 nM
  Tmax: 0.75 h
  half-life: 1.5 h
[2]; plasma, po, p.o. 20 mg/kg
  AUC(0-t): 6.3 ± 0.3 µM·h
  Cmax: 2000 ± 100 nM
  Tmax: 0.75 h
  half-life: 2.1 h
[2]; plasma, po, 2 mg/kg
  bioavailability: 50 ± 11%
[2]; plasma, po, 10 mg/kg
  bioavailability: 77 ± 3%
[2]; plasma, po, 20 mg/kg
  bioavailability: 44 ± 1%
[2]; [10]
  clearance: 51 ± 3 mL/min/kg
[2]; [11]
  clearance: 36 ± 1 mL/min/kg
[2]; [12]
  clearance: 42 ± 1 mL/min/kg
[2]
  Unbound plasma level at Cmax below β2-AR Kd: at least 5 fold
  Likely duration of β1-AR blockade: 10 h
[2]; i.v. 2 mg/kg
  AUC0-t/dose: 0.6 ± 0.1 μM ⋅ h/(mg/kg)
[2]; i.v. 6 mg/kg
  AUC0-t/dose: 0.8 ± 0 μM ⋅ h/(mg/kg)
[2]; i.v. 20 mg/kg
  AUC0-t/dose: 0.7 ± 0 μM ⋅ h/(mg/kg)
[2]; p.o. 2 mg/kg
  AUC0-t/dose: 0.4 ± 0.1 μM ⋅ h/(mg/kg)
[2]; p.o. 10 mg/kg
  AUC0-t/dose: 0.5 ± 0.1 μM ⋅ h/(mg/kg)
[2]; p.o. 20 mg/kg
  AUC0-t/dose: 0.3 ± 0 μM ⋅ h/(mg/kg)
Human β1-AR
  CRE-SPAP production relative to isoprenaline maximum: no responses were observed
[3]
  efflux ratio at 90 min, 20 µM: < 3
  Papp A→B at 90 min, 20 µM: 25 ± 4 ×10⁻⁶ cm/s
CaCo-2 cells
  Apical-to-basolateral membrane permeability (class in words): high
  Mass balance A-B: 76 ± 10%

## O=C1NCc2cc(OCCNC[C@H](O)COc3ccc4c(c3)OC[C@@H](COCC3CC3)O4)ccc21 [NDD-825]
[1]
  Off-target binding in receptor and ion channel panel: poor affinity for most other GPCRs and ion channels
CYP2D6
  IC50: > 20 µM
[2]; plasma, iv, i.v. 2 mg/kg
  AUC(0-t): 1.4 µM·h
  Vd: 6 ± 0.5 L/kg
[2]; [4]
  half-life: 5.3 ± 0.3 h
[2]; [5]
  clearance: 54 ± 2 mL/min/kg
[2]; plasma, iv, i.v. 6 mg/kg
  AUC(0-t): 3.8 ± 0.2 µM·h
  Vd: 5 L/kg
[2]; [6]
  half-life: 7.3 ± 0.1 h
[2]; [7]
  clearance: 59 ± 1 mL/min/kg
[2]; plasma, iv, i.v. 20 mg/kg
  AUC(0-t): 12.1 ± 0.3 µM·h
  Vd: 4.7 L/kg
[2]; [8]
  half-life: 7.1 ± 1.3 h
[2]; [9]
  clearance: 55 ± 1 mL/min/kg
[2]; plasma, po, p.o. 2 mg/kg
  AUC(0-t): 0.4 ± 0.1 µM·h
  Cmax: 100 nM
  Tmax: 1.38 h
  half-life: 9.8 ± 0.2 h
[2]; plasma, po, p.o. 10 mg/kg
  AUC(0-t): 3 ± 0.4 µM·h
  Cmax: 800 ± 100 nM
  Tmax: 0.75 h
  half-life: 4.6 ± 0.1 h
[2]; plasma, po, p.o. 20 mg/kg
  AUC(0-t): 11.9 ± 3 µM·h
  Cmax: 1400 ± 300 nM
  Tmax: 3.1 h
  half-life: 3.3 ± 0.2 h
[2]; plasma, po, 2 mg/kg
  bioavailability: 32 ± 5%
[2]; plasma, po, 10 mg/kg
  bioavailability: 45 ± 6%
[2]; plasma, po, 20 mg/kg
  bioavailability: 89 ± 24%
[2]; [10]
  clearance: 39 ± 1 mL/min/kg
[2]; [11]
  clearance: 42 ± 1 mL/min/kg
[2]; [12]
  clearance: 39 ± 1 mL/min/kg
[2]
  Unbound plasma level at Cmax below β2-AR Kd: at least 5 fold
  Likely duration of β1-AR blockade: > 24 h
[2]; i.v. 2 mg/kg
  AUC0-t/dose: 0.6 ± 0 μM ⋅ h/(mg/kg)
[2]; i.v. 6 mg/kg
  AUC0-t/dose: 0.6 ± 0 μM ⋅ h/(mg/kg)
[2]; i.v. 20 mg/kg
  AUC0-t/dose: 0.6 ± 0 μM ⋅ h/(mg/kg)
[2]; p.o. 2 mg/kg
  AUC0-t/dose: 0.2 ± 0 μM ⋅ h/(mg/kg)
[2]; p.o. 10 mg/kg
  AUC0-t/dose: 0.3 ± 0.1 μM ⋅ h/(mg/kg)
[2]; p.o. 20 mg/kg
  AUC0-t/dose: 0.5 ± 0.2 μM ⋅ h/(mg/kg)
Human β1-AR
  CRE-SPAP production relative to isoprenaline maximum: no responses were observed
[3]
  efflux ratio at 90 min, 20 µM: < 3
  Papp A→B at 90 min, 20 µM: 6.5 ± 0.5 ×10⁻⁶ cm/s
CaCo-2 cells
  Apical-to-basolateral membrane permeability (class in words): intermediate
  Mass balance A-B: 79 ± 11%
